# Experimental data from ChEMBL document CHEMBL4346677, “Compounds based on 5-(perylen-3-ylethynyl)uracil scaffold: High activity against tick-borne encephalitis virus and non-specific activity against enterovirus A” (Eur J Med Chem, 2019).
# Calls of active or inactive are those of the source. The rule behind the calls is not given here.
# Tested on: RD
# Experiment: Cytotoxicity against human RD cells assessed as formation of syncytium-like patterns of cells at 50 uM after 7 days by microscopic method
# Assay type: cell-based
# Settings: 168 h
row,SMILES,Activity
1,O=C(Cn1cc(C#Cc2ccc3c4cccc5cccc(c6cccc2c63)c54)c(=O)[nH]c1=O)NCCCCCO,Toxic
2,CCCCNC(=O)Cn1cc(C#Cc2ccc3c4cccc5cccc(c6cccc2c63)c54)c(=O)n(COC(=O)C(C)(C)C)c1=O,Toxic
3,CC(C)(C)C(=O)OCn1c(=O)c(C#Cc2ccc3c4cccc5cccc(c6cccc2c63)c54)cn(CC(=O)O)c1=O,Toxic

# Tested on: Echovirus
# Experiment: Antiviral activity against Echovirus 30 isolate 48461
# Assay type: functional, organism-based
# Settings: not given
row,SMILES,Activity
1,O=C(Cn1cc(C#Cc2ccc3c4cccc5cccc(c6cccc2c63)c54)c(=O)[nH]c1=O)NCCCCCO,inactive
2,CCCCNC(=O)Cn1cc(C#Cc2ccc3c4cccc5cccc(c6cccc2c63)c54)c(=O)n(COC(=O)C(C)(C)C)c1=O,inactive
3,CC(C)(C)C(=O)OCn1c(=O)c(C#Cc2ccc3c4cccc5cccc(c6cccc2c63)c54)cn(CC(=O)O)c1=O,inactive

# Tested on: Poliovirus 1
# Experiment: Antiviral activity against poliovirus type 1 sabin 1
# Assay type: functional, organism-based
# Settings: not given
row,SMILES,Activity
1,O=C(Cn1cc(C#Cc2ccc3c4cccc5cccc(c6cccc2c63)c54)c(=O)[nH]c1=O)NCCCCCO,inactive
2,CCCCNC(=O)Cn1cc(C#Cc2ccc3c4cccc5cccc(c6cccc2c63)c54)c(=O)n(COC(=O)C(C)(C)C)c1=O,inactive
3,CC(C)(C)C(=O)OCn1c(=O)c(C#Cc2ccc3c4cccc5cccc(c6cccc2c63)c54)cn(CC(=O)O)c1=O,inactive

# Tested on: not listed separately
# Experiment: Cytotoxicity against PEK cells assessed as formation of syncytium-like patterns of cells at 50 uM after 7 days by microscopic method
# Assay type: cell-based, Sus scrofa
# Settings: pig, 168 h
row,SMILES,Activity
1,O=C(Cn1cc(C#Cc2ccc3c4cccc5cccc(c6cccc2c63)c54)c(=O)[nH]c1=O)NCCCCCO,Toxic
2,CCCCNC(=O)Cn1cc(C#Cc2ccc3c4cccc5cccc(c6cccc2c63)c54)c(=O)n(COC(=O)C(C)(C)C)c1=O,Toxic
3,CC(C)(C)C(=O)OCn1c(=O)c(C#Cc2ccc3c4cccc5cccc(c6cccc2c63)c54)cn(CC(=O)O)c1=O,Toxic

# Tested on: not listed separately
# Experiment: Cytotoxicity against PEK cells assessed as reduction in cell viability after 24 hrs by microscopic method
# Assay type: cell-based, Sus scrofa
# Settings: pig
row,SMILES,CC50 at 24 h [µM]
1,O=C(Cn1cc(C#Cc2ccc3c4cccc5cccc(c6cccc2c63)c54)c(=O)[nH]c1=O)NCCCCCO,> 50
2,CCCCNC(=O)Cn1cc(C#Cc2ccc3c4cccc5cccc(c6cccc2c63)c54)c(=O)n(COC(=O)C(C)(C)C)c1=O,> 50
3,CC(C)(C)C(=O)OCn1c(=O)c(C#Cc2ccc3c4cccc5cccc(c6cccc2c63)c54)cn(CC(=O)O)c1=O,> 50

# Tested on: Human alphaherpesvirus 1
# Experiment: Antiviral activity against HSV-1 infected in African green monkey Vero cells preincubated with virus for 5 mins
# Assay type: functional, organism-based
# Settings: Human alphaherpesvirus 1, Vero
row,SMILES,EC50 [µM]
1,O=c1[nH]c(=O)n([C@H]2CC[C@@H](CO)O2)cc1C#Cc1ccc2c3cccc4cccc(c5cccc1c52)c43,0.087
2,CC(C)(C)C(=O)OC[C@@H]1CC[C@H](n2cc(C#Cc3ccc4c5cccc6cccc(c7cccc3c74)c65)c(=O)[nH]c2=O)O1,0.19

# Tested on: not listed separately
# Experiment: Cytotoxicity against human RD cells assessed as reduction in cell viability after 7 days by microscopic method
# Assay type: cell-based
# Settings: not given
row,SMILES,CC50 at 168 h [µM]
1,O=C(Cn1cc(C#Cc2ccc3c4cccc5cccc(c6cccc2c63)c54)c(=O)[nH]c1=O)NCCCCCO,> 104
2,CCCCNC(=O)Cn1cc(C#Cc2ccc3c4cccc5cccc(c6cccc2c63)c54)c(=O)n(COC(=O)C(C)(C)C)c1=O,10

# Tested on: Vero
# Experiment: Cytotoxicity against African green monkey Vero cells assessed as formation of syncytium-like patterns of cells at 50 uM after 7 days by microscopic method
# Assay type: cell-based
# Settings: chlorocebus sabaeus, 168 h
row,SMILES,Activity
1,O=C(Cn1cc(C#Cc2ccc3c4cccc5cccc(c6cccc2c63)c54)c(=O)[nH]c1=O)NCCCCCO,Toxic
2,CCCCNC(=O)Cn1cc(C#Cc2ccc3c4cccc5cccc(c6cccc2c63)c54)c(=O)n(COC(=O)C(C)(C)C)c1=O,Toxic
3,CC(C)(C)C(=O)OCn1c(=O)c(C#Cc2ccc3c4cccc5cccc(c6cccc2c63)c54)cn(CC(=O)O)c1=O,Toxic

# Tested on: not listed separately
# Experiment: Cytotoxicity against PEK cells assessed as reduction in cell viability after 7 days by microscopic method
# Assay type: cell-based, Sus scrofa
# Settings: pig
row,SMILES,CC50 at 168 h [µM]
1,O=C(Cn1cc(C#Cc2ccc3c4cccc5cccc(c6cccc2c63)c54)c(=O)[nH]c1=O)NCCCCCO,> 50
2,CCCCNC(=O)Cn1cc(C#Cc2ccc3c4cccc5cccc(c6cccc2c63)c54)c(=O)n(COC(=O)C(C)(C)C)c1=O,> 50
3,CC(C)(C)C(=O)OCn1c(=O)c(C#Cc2ccc3c4cccc5cccc(c6cccc2c63)c54)cn(CC(=O)O)c1=O,> 50

# Tested on: not listed separately
# Experiment: Cytotoxicity against African green monkey Vero cells assessed as reduction in cell viability after 7 days by microscopic method
# Assay type: cell-based
# Settings: chlorocebus sabaeus
row,SMILES,CC50 at 168 h [µM]
1,O=C(Cn1cc(C#Cc2ccc3c4cccc5cccc(c6cccc2c63)c54)c(=O)[nH]c1=O)NCCCCCO,> 50
2,CCCCNC(=O)Cn1cc(C#Cc2ccc3c4cccc5cccc(c6cccc2c63)c54)c(=O)n(COC(=O)C(C)(C)C)c1=O,> 50

# Tested on: not listed separately
# Experiment: Cytotoxicity against African green monkey Vero cells assessed as reduction in cell viability after 24 hrs by microscopic method
# Assay type: cell-based
# Settings: chlorocebus sabaeus
row,SMILES,CC50 at 24 h [µM]
1,O=C(Cn1cc(C#Cc2ccc3c4cccc5cccc(c6cccc2c63)c54)c(=O)[nH]c1=O)NCCCCCO,> 50
2,CCCCNC(=O)Cn1cc(C#Cc2ccc3c4cccc5cccc(c6cccc2c63)c54)c(=O)n(COC(=O)C(C)(C)C)c1=O,> 50

# Tested on: not listed separately
# Experiment: Cytotoxicity against human RD cells assessed as reduction in cell viability after 24 hrs by microscopic method
# Assay type: cell-based
# Settings: not given
row,SMILES,CC50 at 24 h [µM]
1,O=C(Cn1cc(C#Cc2ccc3c4cccc5cccc(c6cccc2c63)c54)c(=O)[nH]c1=O)NCCCCCO,> 104
2,CCCCNC(=O)Cn1cc(C#Cc2ccc3c4cccc5cccc(c6cccc2c63)c54)c(=O)n(COC(=O)C(C)(C)C)c1=O,38

# Tested on: Enterovirus A71
# Experiment: Antiviral activity against Enterovirus A71 isolate 46973 infected in human RD cells assessed as reduction in virus induced cytopathic effect preincubated with viral suspension for 1 hr followed by cell addition measured after 5 to 7 days
# Assay type: functional, organism-based
# Settings: not given
row,SMILES,EC50
1,O=C(Cn1cc(C#Cc2ccc3c4cccc5cccc(c6cccc2c63)c54)c(=O)[nH]c1=O)NCCCCCO,Not Active
2,CCCCNC(=O)Cn1cc(C#Cc2ccc3c4cccc5cccc(c6cccc2c63)c54)c(=O)n(COC(=O)C(C)(C)C)c1=O,Not Active

# Tested on: Tick-borne encephalitis virus
# Experiment: Antiviral activity against TBEV Absettarov infected in PEK cells assessed as plaque reduction preincubated for 1 hr followed by overlaying with 1.26% methylcellulose and measured after 6 days by gentian violet staining-based assay
# Assay type: functional, organism-based
# Settings: not given
row,SMILES,EC50 [µM]
1,O=C(Cn1cc(C#Cc2ccc3c4cccc5cccc(c6cccc2c63)c54)c(=O)[nH]c1=O)NCCCCCO,0.077
2,CCCCNC(=O)Cn1cc(C#Cc2ccc3c4cccc5cccc(c6cccc2c63)c54)c(=O)n(COC(=O)C(C)(C)C)c1=O,0.054
3,CC(C)(C)C(=O)OCn1c(=O)c(C#Cc2ccc3c4cccc5cccc(c6cccc2c63)c54)cn(CC(=O)O)c1=O,0.0012
